Laboratory results taken from the NIST ThermoML archive (doi:10.1016/j.fluid.2008.03.004).

Assay: xn = mol fraction of the nth substance listed
Conditions: 101 kPa, Liquid; for speed of sound: Sing-around technique in a fixed-path interferometer

Cc1cccc(C)c1 [1,3-dimethylbenzene] + COC(C)(C)C
Conditions	mass density [kg/m3]	speed of sound [m/s]
288.15 K, x2 = 0	868.459	1362.7
288.15 K, x2 = 0.047	863.235	1350.6
288.15 K, x2 = 0.115	855.522	1332.6
288.15 K, x2 = 0.212	844.315	1306.8
288.15 K, x2 = 0.304	833.627	1282.4
288.15 K, x2 = 0.399	822.223	1256.5
288.15 K, x2 = 0.5	809.928	1228.3
288.15 K, x2 = 0.601	797.423	1200.9
288.15 K, x2 = 0.651	791.063	1185.3
288.15 K, x2 = 0.794	772.47	1143.4
288.15 K, x2 = 0.898	758.81	1113.2
288.15 K, x2 = 0.954	751.317	1097.5
290.65 K, x2 = 0	866.318	1352.1
290.65 K, x2 = 0.047	861.081	1340.1
290.65 K, x2 = 0.115	853.297	1322.5
290.65 K, x2 = 0.212	842.102	1296.1
290.65 K, x2 = 0.304	831.375	1271.5
290.65 K, x2 = 0.399	819.939	1245.6
290.65 K, x2 = 0.5	807.6	1217.4
290.65 K, x2 = 0.601	795.051	1189.7
290.65 K, x2 = 0.651	788.663	1173.8
290.65 K, x2 = 0.794	769.999	1132
290.65 K, x2 = 0.898	756.279	1101.5
290.65 K, x2 = 0.954	748.754	1085.7
293.15 K, x2 = 0	864.177	1341.7
293.15 K, x2 = 0.047	858.922	1329.7
293.15 K, x2 = 0.115	851.118	1312
293.15 K, x2 = 0.212	839.887	1285.5
293.15 K, x2 = 0.304	829.126	1260.8
293.15 K, x2 = 0.399	817.65	1234.7
293.15 K, x2 = 0.5	805.27	1206.5
293.15 K, x2 = 0.601	792.671	1178.5
293.15 K, x2 = 0.651	786.26	1162.6
293.15 K, x2 = 0.794	767.519	1120.7
293.15 K, x2 = 0.898	753.738	1090
293.15 K, x2 = 0.954	746.179	1074.1
295.65 K, x2 = 0	862.035	1331.3
295.65 K, x2 = 0.047	856.763	1319
295.65 K, x2 = 0.115	848.935	1301.5
295.65 K, x2 = 0.212	837.67	1274.9
295.65 K, x2 = 0.304	826.872	1250.1
295.65 K, x2 = 0.399	815.358	1223.9
295.65 K, x2 = 0.5	802.93	1195.6
295.65 K, x2 = 0.601	790.285	1167.3
295.65 K, x2 = 0.651	783.85	1151.5
295.65 K, x2 = 0.794	765.033	1109.4
295.65 K, x2 = 0.898	751.19	1078.5
295.65 K, x2 = 0.954	743.594	1062.5
298.15 K, x2 = 0	859.89	1320.9
298.15 K, x2 = 0.047	854.604	1308.8
298.15 K, x2 = 0.115	846.749	1291
298.15 K, x2 = 0.212	835.447	1264.3
298.15 K, x2 = 0.304	824.615	1239.4
298.15 K, x2 = 0.399	813.059	1213.1
298.15 K, x2 = 0.5	800.588	1184.7
298.15 K, x2 = 0.601	787.899	1156
298.15 K, x2 = 0.651	781.433	1140.4
298.15 K, x2 = 0.794	762.537	1098.1
298.15 K, x2 = 0.898	748.629	1066.9
298.15 K, x2 = 0.954	740.997	1050.9
300.65 K, x2 = 0	857.742	1310.6
300.65 K, x2 = 0.047	852.439	1298.5
300.65 K, x2 = 0.115	844.562	1280.5
300.65 K, x2 = 0.212	833.221	1253.8
300.65 K, x2 = 0.304	822.354	1228.8
300.65 K, x2 = 0.399	810.758	1202.3
300.65 K, x2 = 0.5	798.24	1173.9
300.65 K, x2 = 0.601	785.504	1144.9
300.65 K, x2 = 0.651	779.011	1129.3
300.65 K, x2 = 0.794	760.033	1086.9
300.65 K, x2 = 0.898	746.061	1055.5
300.65 K, x2 = 0.954	738.393	1039.4
303.15 K, x2 = 0	855.593	1300.3
303.15 K, x2 = 0.047	850.273	1288.1
303.15 K, x2 = 0.115	842.425	1270
303.15 K, x2 = 0.212	830.994	1243.3
303.15 K, x2 = 0.304	820.086	1218.2
303.15 K, x2 = 0.399	808.453	1191.6
303.15 K, x2 = 0.5	795.888	1163.1
303.15 K, x2 = 0.601	783.103	1133.8
303.15 K, x2 = 0.651	776.58	1118.3
303.15 K, x2 = 0.794	757.521	1075.7
303.15 K, x2 = 0.898	743.481	1044
303.15 K, x2 = 0.954	735.774	1027.8
305.65 K, x2 = 0	853.441	1290
305.65 K, x2 = 0.047	848.1	1277.8
305.65 K, x2 = 0.115	840.172	1259.7
305.65 K, x2 = 0.212	828.758	1232.9
305.65 K, x2 = 0.304	817.815	1207.7
305.65 K, x2 = 0.399	806.139	1180.9
305.65 K, x2 = 0.5	793.525	1152.3
305.65 K, x2 = 0.601	780.692	1122.8
305.65 K, x2 = 0.651	774.141	1107.3
305.65 K, x2 = 0.794	755.009	1064.7
305.65 K, x2 = 0.898	740.889	1032.7
305.65 K, x2 = 0.954	733.146	1016.3
308.15 K, x2 = 0	851.282	1279.8
308.15 K, x2 = 0.047	845.927	1267.6
308.15 K, x2 = 0.115	837.974	1249.3
308.15 K, x2 = 0.212	826.519	1222.5
308.15 K, x2 = 0.304	815.538	1197.2
308.15 K, x2 = 0.399	803.818	1170.3
308.15 K, x2 = 0.5	791.157	1141.6
308.15 K, x2 = 0.601	778.273	1112
308.15 K, x2 = 0.651	771.692	1096.4
308.15 K, x2 = 0.794	752.457	1053.3
308.15 K, x2 = 0.898	738.286	1021.4
308.15 K, x2 = 0.954	730.505	1004.8
310.65 K, x2 = 0	849.122	1269.6
310.65 K, x2 = 0.047	843.75	1257.3
310.65 K, x2 = 0.115	835.768	1239.1
310.65 K, x2 = 0.212	824.276	1212.1
310.65 K, x2 = 0.304	813.255	1186.8
310.65 K, x2 = 0.399	801.494	1159.8
310.65 K, x2 = 0.5	788.781	1130.9
310.65 K, x2 = 0.601	775.847	1101.1
310.65 K, x2 = 0.651	769.237	1085.5
310.65 K, x2 = 0.794	749.912	1042.3
310.65 K, x2 = 0.898	735.671	1010.1
310.65 K, x2 = 0.954	727.852	993.4
313.15 K, x2 = 0	846.958	1259.5
313.15 K, x2 = 0.047	841.566	1247.2
313.15 K, x2 = 0.115	833.56	1228.8
313.15 K, x2 = 0.212	822.027	1201.8
313.15 K, x2 = 0.304	810.966	1176.3
313.15 K, x2 = 0.399	799.161	1149.3
313.15 K, x2 = 0.5	786.398	1120.3
313.15 K, x2 = 0.601	773.412	1090.2
313.15 K, x2 = 0.651	766.771	1074.7
313.15 K, x2 = 0.794	747.356	1031.2
313.15 K, x2 = 0.898	733.042	998.84
313.15 K, x2 = 0.954	725.183	981.87
315.65 K, x2 = 0	844.792	1249.3
315.65 K, x2 = 0.047	839.381	1237
315.65 K, x2 = 0.115	831.348	1218.6
315.65 K, x2 = 0.212	819.775	1191.5
315.65 K, x2 = 0.304	808.673	1165.9
315.65 K, x2 = 0.399	796.825	1138.8
315.65 K, x2 = 0.5	784.01	1109.7
315.65 K, x2 = 0.601	770.967	1079.5
315.65 K, x2 = 0.651	764.3	1063.9
315.65 K, x2 = 0.794	744.791	1020.2
315.65 K, x2 = 0.898	730.402	987.66
315.65 K, x2 = 0.954	722.504	970.42
318.15 K, x2 = 0	842.622	1239.3
318.15 K, x2 = 0.047	837.193	1226.9
318.15 K, x2 = 0.115	829.131	1208.5
318.15 K, x2 = 0.212	817.518	1181.2
318.15 K, x2 = 0.304	806.375	1155.6
318.15 K, x2 = 0.399	794.481	1128.3
318.15 K, x2 = 0.5	781.614	1099.1
318.15 K, x2 = 0.601	768.518	1068.8
318.15 K, x2 = 0.651	761.816	1053.1
318.15 K, x2 = 0.794	742.213	1009.3
318.15 K, x2 = 0.898	727.749	976.53
318.15 K, x2 = 0.954	719.811	959.09
320.65 K, x2 = 0	840.452	1229.3
320.65 K, x2 = 0.047	835	1216.9
320.65 K, x2 = 0.115	826.912	1198.3
320.65 K, x2 = 0.212	815.256	1171
320.65 K, x2 = 0.304	804.075	1145.3
320.65 K, x2 = 0.399	792.132	1118
320.65 K, x2 = 0.5	779.21	1088.6
320.65 K, x2 = 0.601	766.061	1058.2
320.65 K, x2 = 0.651	759.325	1042.4
320.65 K, x2 = 0.794	739.628	998.4
320.65 K, x2 = 0.898	725.085	965.42
320.65 K, x2 = 0.954	717.105	947.81
323.15 K, x2 = 0	838.289	1219.5
323.15 K, x2 = 0.047	832.812	1207
323.15 K, x2 = 0.115	824.696	1188.4
323.15 K, x2 = 0.212	813.002	1161.1
323.15 K, x2 = 0.304	801.776	1135.1
323.15 K, x2 = 0.399	789.785	1107.7
323.15 K, x2 = 0.5	776.809	1078.2
323.15 K, x2 = 0.601	763.606	1047.7
323.15 K, x2 = 0.651	756.839	1031.9
323.15 K, x2 = 0.794	737.044	987.59
323.15 K, x2 = 0.898	722.414	954.46
323.15 K, x2 = 0.954	714.398	936.68
